Experimental data: US20220267753A1, “RATIONAL THERAPEUTIC TARGETING OF ONCOGENIC IMMUNE SIGNALING STATES IN MYELOID MALIGNANCIES VIA THE UBIQUITIN CONJUGATING ENZYME UBE2N” (CHILDREN'S HOSPITAL MEDICAL CENTER, priority 2019, published 2022)

Key:
[1] = Microsomal stability (mouse liver microsomes); assay type: in vitro ADME, C57/Bl6; settings: for Microsomal Stability % Remaning at T60 / CLint scaled / half-life: C57/Bl6, concentration 1 (mM), matrix 0.5 mg/ml; for CLint scaled: C57/Bl6, mouse; for CLint scaled / half-life: liver microsomes; for half-life: mouse, read-out: Microsomal Stability T ½
Plasma stability = assay type: in vitro ADME; parameters: half-life: dose or concentration left out as unconfirmed; settings: C57/Bl6 plasma, concentration 1 (mM), K2EDTA; for half-life: mouse, read-out: Plasma Stability T ½
MOLM-13 = assay: Cell proliferation MTS assay / cytotoxicity screen; assay type: cell-based, human; settings: for cytotoxicity screen in MOLM-13 cells: 2nd screen at 2 μM, 24 hr MTS
Description: AML cell lines (5×10^3 cells/well) were seeded in 96-well plates and grown for 24 to 96 h in serum (10%)-containing medium in the presence or absence of inhibitors at the indicated concentrations. Proliferation was analyzed by means of an MTS assay using the CellTiter 96 Aqueous One Solution Cell Proliferation Assay (Promega, Madison, Wis., USA), according to the manufacturer's instructions. Data are mean with standard deviation from three independent experiments in technical triplicates. For the screening of 160 compounds from the UC library, the cell metabolic activity was assessed at 24 hours of treatment of MOLM-13 cells. Top 15 candidates were re-screened at 2 μM, and the cell metabolic activity was determined at 24 hours of treatment. In certain experiments, cell viability was determined by staining the cells with trypan blue at a 1/2 dilution and counting total number of viable cells upon treatment with UC-764864 or DMSO control. The cells were counted daily for 4 days using an automated cell counter (Countess II FL from Life Technologies). The cell proliferation in primary AMLs in FIG. 9E was performed as follows: 50,000 cells were plated in duplicate in a 96 well plate in IMDM containing 20% heat inactivated FBS plus 10 ng/ml of each SCF, IL3, IL6, TPO, and FLT3. UC-764864 was added at the indicated concentrations and cells were incubated with drug for 3 days, at which point cell viability was measured by MTS according to manufacturer's instructions.

UBE2N = biological target: T1, UBE2N (Homo sapiens, UniProt P61088); assay: Cellular thermal shift assay (CETSA) in MOLM-13 cells; assay type: binding; parameters: quantification of Ts, for endogenous UBE2N; endogenous in cells; host or cells: MOLM-13; settings: MOLM-13, 1 hour, heat challenge at Tagg(75); read-out: EC50 of stabilization of UBE2N (CETSA)
T1 sequence (P61088 1-152): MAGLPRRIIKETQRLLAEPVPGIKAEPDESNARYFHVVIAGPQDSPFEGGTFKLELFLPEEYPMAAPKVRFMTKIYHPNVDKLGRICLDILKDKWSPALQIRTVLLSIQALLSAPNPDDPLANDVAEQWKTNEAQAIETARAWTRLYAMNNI
Description: CETSA was performed with MOLM-13 cells cultured in RPMI medium supplemented with 10% FBS. For an initial determination of the melting profile of UBE2N, fresh cell lysate prepared in non-denaturing buffer was dispensed into 96-well PCR plate in the above medium (approx. 8000 cells/well/50 μl), then was subjected to temperature gradient (37-60° C.) for 20 min. Subsequently, centrifugation was performed at 14,000 rpm to sediment the unstable protein content. Supernatant was collected and SDS-PAGE gel was run, and immuno-detection was performed for UBE2N using corresponding primary antibody. Band intensity was quantified on LI-COR C-Digit Blot Scanner, and subsequently Tagg(50) and Tagg(75) values were calculated for UBE2N. In a subsequent run, fresh lysates of MOLM-13 cells were treated at various doses with 4-fold dilutions (10, 2.5, 0.62, 0.15, 0.04, 0.01 and 0.002 .tM) of compounds UC-764864 and UC-764865 together with DMSO control, for 1 hour. Samples were then subjected to heat challenge at Tagg(75) for 20 min, and unstable protein was removed by centrifugation step. Following an immuno-blotting step, bands of remaining stable UBE2N were quantified, normalized to loading control and plotted using GraphPad Prism software. EC50 values of engagement for both compounds with UBE2N were subsequently calculated.

UBE2N C87S mutant = biological target: T2, UBE2N C87S mutant (Homo sapiens, UniProt P61088, C87S); assay: Linear mass spectrometry (MALDI-TOF) analysis of drug binding; settings: MALDI-TOF-MS
T2 construct: purchased Genescript
T2 sequence (P61088 whole entry C87S): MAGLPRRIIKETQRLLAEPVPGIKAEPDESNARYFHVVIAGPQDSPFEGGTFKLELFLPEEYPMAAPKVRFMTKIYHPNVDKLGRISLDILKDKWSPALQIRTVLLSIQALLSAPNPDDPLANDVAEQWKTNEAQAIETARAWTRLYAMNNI
Description: (§1) Recombinant UBE2N (2 .tg; Life sensors #UB218) in 3 .tl of buffer containing 20 mM Tris-HCl pH 7.4, 10 mM DTT, 10% glycerol, 150 mM NaCl and 0.02% DMSO as well as six samples of 1 .tg UBE2N mixed with 0.2 .tg of UC-764864 or UC-764865 were diluted to 50 ng/uL in 0.1% formic acid (FA) in preparation of MALDI-TOF analysis. Two .tl aliquots from the samples were used to make a 1:5 dilution with MALDI matrix (5 mg/mL sinapic acid in 60% ACN/0.1% formic acid) with 1 .tL spotted onto the target plate for analysis. For UBE2N C87S mutant, recombinant protein was purchased from Genescript. 2 micrograms of protein as well as 3 samples of UBE2N C87S were mixed with 0.4 micrograms of UC-764864 and UC-764865 in 10 microliters of buffer containing 20 mM Tris HCl pH 7.4, 1 mM DTT, 150 mM NaCl and ˜0.01% of DMSO in each sample. All mixtures were brought up to 40 ul by adding 30 ul of 0.1% formic acid (FA). 5 ul aliquots from the samples were used to make a 1:5 dilution with MALDI matrix as described above. All spectra were acquired in Linear Positive Ion Mode on an ABSciex 4800 MALDI-TOF/TOF instrument, with E. coli thioredoxin (11,674.5; MH+ avg) and horse muscle apomyoglobin (15,952.6; MH+ avg) as mass calibration standards. For DSF, all proteins (UBE2N wild type and UBE2N C87S) were used at a final concentration of 5 .tM. SYPRO Orange (Invitrogen 56651, Carlsbad, Calif.) was used at a final concentration of 10× for UBE2N wild type and UBE2N C87S. Experiments were carried out in 20 mM Tris-HCl pH 8, 150 mM NaCl, 1 mM TCEP, and 10% DMSO. UC-764865 was mixed with the proteins at increasing concentrations, each sample was divided into three 25 .tl replicates in 48-well optical plates (Thermo Fisher Scientific 4375816, Waltham, Mass.) and the plate was sealed with optical PCR plate sheet (Thermo Fisher Scientific 4375928). All experiments were performed on a StepOne Real-Time PCR System (Applied Biosystems 4376357, Foster City, Calif.). The temperature was raised in 1° C. increments from 25° C. to 95° C. and fluorescence was measured at 530 nm. Derivative Tm was determined using Protein Thermal Shift Software version 1.3 by Applied Biosystems and then were analyzed with Prism 6 (GraphPad Software Inc.).

UBE2N wild type = biological target: T3, UBE2N wild type (Homo sapiens, UniProt P61088); assay: as above; settings: MALDI-TOF-MS, incubated with compound
T3 construct: purchased Life sensors UB218
T3 sequence (P61088 1-152): T1 sequence (P61088 1-152)
Description: as §1

metabolism in mouse liver microsomes [1] | Structure (SMILES) | Microsomal Stability % Remaning at T60 [1] [%] | CLint scaled [1] [mL/min/kg] | half-life [1] [min] | Plasma Stability % Remaning at T60 (Plasma stability) [%] | half-life (Plasma stability) [min] | cytotoxicity screen in MOLM-13 cells (MOLM-13) | IC50 (MOLM-13; Homo sapiens, MOLM-13, MTS, 24 hours) [µM] | EC50 (UBE2N) [µM] | binding to recombinant UBE2N(C87S) (mass shift) (UBE2N C87S mutant) | mass shift of wild-type UBE2N protein (UBE2N wild type) [Da]
readily metabolized | CCc1ccc(C(=O)C=CSc2nc3ccc(C)cc3[nH]2)cc1 [UC-764864, 1-(4-ethylphenyl)-3-[(6-methyl-1H-benzimidazol-2-yl)sulfanyl]prop-2-en-1-one] | 0.02 | 1090 | 4.99 | 21.4 | 31.8 | cytotoxic effects | 1.9 | 2.2 | does not bind | 160
 | COc1ccc(C(=O)C=CSc2nc3ccc(C)cc3[nH]2)cc1 [UC-764865, 1-(4-methoxyphenyl)-3-[(6-methyl-1H-benzimidazol-2-yl)sulfanyl]prop-2-en-1-one] | 0.2 | 1100 | 4.97 | 39.6 | 53.6 | cytotoxic effects |  | 0.42 | does not bind | 160
